The target of one test is T1, BUBR1 (Homo sapiens, UniProt O60566).
T1 construct: made in house
Put plainly: Pulldown assay of UPCP and BUBR1. In kind it is binding. The conditions noted are these: pulldown (and MST); His-UPCP 10 μg with Flag beads-BUBR1, 16 h at 4 °C. How it is done:
(§1) Cells were harvested and lysed in buffer A mixed with protease inhibitor cocktail tablet (Roche) after 48 h. […] The beads were washed three times using 1× Tris saline buffer (50 mM Tris-HCl (pH 7.4) and 150 mM NaCl)) for 8 min each. The bound proteins BUBR1 or PTBP1 were eluted with 3×Flag peptide (ApexBio) for 2 h at 4 °C. Finally, BUBR1 or PTBP1 was concentrated and recovered by using the Centrifugal Filters (Amicon Ultra).
(§2) A detailed description of the pulldown assay was described previously. His-UPCP fusion protein was expression in bacteria (BL21) and induced with 0.5 mM isopropyl-β-D-thio-galactoside for 16 h at 16 °C. The bacteria were harvested and lysed in TEN buffer (20 mM Tris-HCl (pH7.4), 0.1mM EDTA, 100 mM NaCl). […] His-UPCP was eluted with Imidazole eluent (50 mM NaH2PO4, 300 mM NaCl and 50 mM Imidazole) for 2 h at 4 °C and concentrated and recovered using centrifugal filters (Amicon Ultra). For the pulldown of His-UPCP and Flag-BUBR1 or Flag-PTBP1, 10 μg His-UPCP was incubated with Flag beads (Biotool, catalog no. B23102), Flag beads-BUBR1 or Flag beads-PTBP1 respectively for 16 h at 4 °C. The beads were washed three times with PBS and added to 1× loading buffer for western blot.

The target in a further test is T2, PTBP1 (Homo sapiens, UniProt P26599).
T2 construct: made in house
T2 sequence (P26599 whole entry): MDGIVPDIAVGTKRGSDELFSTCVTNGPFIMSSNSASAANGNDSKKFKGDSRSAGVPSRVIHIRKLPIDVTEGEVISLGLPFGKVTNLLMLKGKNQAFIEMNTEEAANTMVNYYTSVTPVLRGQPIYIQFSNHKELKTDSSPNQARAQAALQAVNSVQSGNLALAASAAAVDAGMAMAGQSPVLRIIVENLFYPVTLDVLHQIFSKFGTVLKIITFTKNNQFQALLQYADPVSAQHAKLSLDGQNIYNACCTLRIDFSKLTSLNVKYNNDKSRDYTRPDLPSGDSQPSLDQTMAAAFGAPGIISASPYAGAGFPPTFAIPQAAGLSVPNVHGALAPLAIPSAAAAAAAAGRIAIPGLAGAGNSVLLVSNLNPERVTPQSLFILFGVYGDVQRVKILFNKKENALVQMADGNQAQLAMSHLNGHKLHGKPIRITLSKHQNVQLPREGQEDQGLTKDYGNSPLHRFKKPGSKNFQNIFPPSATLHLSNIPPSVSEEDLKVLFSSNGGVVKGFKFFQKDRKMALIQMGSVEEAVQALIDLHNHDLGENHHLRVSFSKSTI
Kind of test: Pulldown assay of UPCP and PTBP1. Conditions: pulldown (and MST); His-UPCP 10 μg with Flag beads-PTBP1, 16 h at 4 °C. It is filed as binding. How it is done:
as §1, §2

The subject of test [1] is progerin–BUBR1 interaction. Put plainly: CoIP of progerin and BUBR1 in HEK-293T cells. It is filed as cell-based. Conditions: HEK-293T, Flag-progerin, UPCP 6 μM, 12 μM and 18 μM. How it is done: Detailed descriptions of CoIP were described previously[55],[56]. Cells were harvested and washed three times in cold PBS, then lysed in CoIP buffer (25 mM Tris-HCl (pH 7.5), 150 mM KCl, 5 mM EDTA, and 0.5% NP-40) plus protease inhibitor cocktail tablet (Roche). Incubate on ice and shock lysates on the vortex shaker 15 times for 30 s each. Microcentrifuge in 12,000g for 15 min at 4 °C, collect the supernatant, and incubate with 3 μg primary antibodies with gentle shaking overnight at 4 °C, followed by adding 20–40 μl Pure Proteome Protein A/G Mix Magnetic Beads (Millipore, catalog no. […]02) for 3 h. Wash the beads three times with 1 ml CoIP buffer for 8 min each, resuspend in 50 μl 1× loading buffer, and incubate at 100 °C for 8 min. Throw beads away and analyze by immunoblotting.

Another test deals with HGADFN167 cells. Kind of test: Ki67 immunofluorescence of HGADFN167 cells. In kind it is cell-based, human. How it is done:
(§3) Immunofluorescence was performed as described previously. Cells were plated on cover slips in 12-well plates, left overnight before the treatment. Cells were fixed in 1% formaldehyde in culture medium for 10 min at 37 °C and permeabilized with 0.2% Triton X-100 in PBS for 10 min at room temperature. Cells were washed twice in PBS and blocked for 1 h with 5% BSA in PBS and then incubated with primary antibodies at 4 °C overnight, washed three times in PBS and incubated with secondary antibodies for 1 h at room temperature. Cell nuclei were counterstained with a 500 nM concentration of 4,6-diamidino-2-phenylindole (DAPI) (Sigma). Images were acquired by a fluorescence microscope (OLYMPUS FV-1000, Carl Zeiss LSM880 or Leica DMi8) and analyzed with software NIS-Elements AR v.5.0.1 (Nikon), FLUOVIEW v.4.2b (OLYMPUS), ZEN v.2.3 SP1 (Carl Zeiss) and Leica Application Suite X v.3.6.0.24 (Leica). Cells were quantified by investigators who were blinded to the identity of the analyzed cell.

For a further test, the system named is HGADFN003 cells. Kind of test: CyclinA2 immunofluorescence of HGADFN003 cells. It is filed as cell-based, human. How it is done:
as §3

The test system of another test is IMR90 cells. Kind of test: Etoposide-, Ras- and H2O2-induced early stage senescence of IMR90 cells. The conditions noted are these: IMR90, UPCP 6 μM, another 5 days; SA-β-gal, Ki67, Western blot. In kind it is cell-based, human. The text has this:
HGPS is an extremely rare congenital genetic disease, and its treatments are still under theoretical research. […] Also, to investigate the role of UPCP on other senescence models, we used Etoposide, Ras or H2O2 to induce senescence of IMR90 cells, and added UPCP to the cells treated with the drugs mentioned above when the cells just entered early stage senescence. […] Further work aimed at obtaining UPCPs with stronger stability, longer half-life and optimized physical structures are under planning. Therefore, UPCP may have broad application prospects in the treatment of HGPS.
SA-β-gal positive cells was calculated (c). Scale bars: 200 μm. d. Western blot analysis of Lamin B1, CyclinA2, IL-6 and p21 in senescent IMR90 cells with the indicated treatments. e,f.
Immunofluorescence analysis of Ki67 in IMR90 cells with the indicated treatment. Representative […]
≥ 200 cells. Scale bars: 50 μm. For bar and line graphs, data are presented as mean ± SD.
Statistical significance was determined in c and f using two-tailed unpaired Student’s t-test.
Supplementary Data Figure 2. UPCP delays Etoposide, Ras and H2O2 induced early stage cellular senescence. a. […]
and the percentage of the Ki67 positive cells was calculated (f), n ≥ 200 cells. […]
For bar and line graphs, data are presented as mean ± SD. Statistical significance was determined inc and f using two-tailed unpaired Student’s t-test.
(In general: In western blotting, separated proteins are transferred to a membrane and probed.)

This is an account of results in paper PMC10154249, “Unique progerin C-terminal peptide ameliorates Hutchinson–Gilford progeria syndrome phenotype by rescuing BUBR1” (Nature Aging, 2023).

T1 sequence (O60566 whole entry): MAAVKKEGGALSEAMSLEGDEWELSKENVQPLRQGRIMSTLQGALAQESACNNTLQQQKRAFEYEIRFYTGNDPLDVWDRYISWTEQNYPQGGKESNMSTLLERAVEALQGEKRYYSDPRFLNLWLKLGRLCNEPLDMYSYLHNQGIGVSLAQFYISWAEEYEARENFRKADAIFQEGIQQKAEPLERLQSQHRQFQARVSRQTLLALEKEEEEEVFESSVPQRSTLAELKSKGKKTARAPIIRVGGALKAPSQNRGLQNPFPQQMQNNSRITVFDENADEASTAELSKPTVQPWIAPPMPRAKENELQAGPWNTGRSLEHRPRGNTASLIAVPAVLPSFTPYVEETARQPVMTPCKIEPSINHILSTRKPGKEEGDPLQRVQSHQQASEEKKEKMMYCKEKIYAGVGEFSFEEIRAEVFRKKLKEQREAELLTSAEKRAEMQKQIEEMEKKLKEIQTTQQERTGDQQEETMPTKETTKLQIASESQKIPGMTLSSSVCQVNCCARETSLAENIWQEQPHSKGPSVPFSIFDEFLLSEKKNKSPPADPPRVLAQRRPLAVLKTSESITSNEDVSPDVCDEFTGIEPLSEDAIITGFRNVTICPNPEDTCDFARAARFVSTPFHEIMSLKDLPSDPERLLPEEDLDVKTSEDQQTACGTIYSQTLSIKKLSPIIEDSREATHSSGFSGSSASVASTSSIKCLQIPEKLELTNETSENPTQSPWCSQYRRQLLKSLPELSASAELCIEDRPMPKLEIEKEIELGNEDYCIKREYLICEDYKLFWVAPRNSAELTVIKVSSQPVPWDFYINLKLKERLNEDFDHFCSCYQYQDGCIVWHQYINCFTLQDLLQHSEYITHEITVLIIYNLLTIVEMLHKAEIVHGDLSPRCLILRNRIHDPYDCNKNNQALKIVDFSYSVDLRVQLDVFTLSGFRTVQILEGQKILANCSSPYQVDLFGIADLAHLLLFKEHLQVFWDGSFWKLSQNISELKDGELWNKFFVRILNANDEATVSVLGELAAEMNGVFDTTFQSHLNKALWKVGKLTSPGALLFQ

In the case of “H-YGRKKRRQRRRYNLRSRTVLCGTCGQPADKASASGSGAQSPQNCSIM-OH (cysteines drawn unpaired) [UPCP, unique progerin C-terminal peptide]”, the “direct combination with BUBR1” value at BUBR1 is given as “could combine with BUBR1 directly in vitro”. Further, the “combination with PTBP1” value on PTBP1 is reported as “combined with PTBP1”. For the same substance, the “interaction between progerin and BUBR1” value in test [1] is “interfered with the interaction between progerin and BUBR1”. In addition, the Ki67 positive cells was found to be 53% with HGADFN167 cells (HGADFN167, replicate 1); 45% in the test on HGADFN167 cells (HGADFN167, replicate 2); 56% in the test with HGADFN167 cells (HGADFN167, replicate 3). The CyclinA2 positive cells turned out to be 25% with HGADFN003 cells (HGADFN003, 2h, replicate 1); 35.7143% with HGADFN003 cells (HGADFN003, 2h, replicate 2); 33.3333% in the test on HGADFN003 cells (HGADFN003, 2h, replicate 3); 42.8571% in the test with HGADFN003 cells (HGADFN003, 4h, replicate 1); 43.4783% with HGADFN003 cells (HGADFN003, 4h, replicate 2); 31.8182% in the test with HGADFN003 cells (HGADFN003, 4h, replicate 3). Moreover, the CyclinA2 positive cells in the test on HGADFN003 cells (HGADFN003, 6h, replicate 1) turned out to be 35.2941%; in the test with HGADFN003 cells (HGADFN003, 6h, replicate 2), 33.3333%; with HGADFN003 cells (HGADFN003, 6h, replicate 3) it was 45.8333%; in the test on HGADFN003 cells (HGADFN003, 24h, replicate 1), 42.3077%; in the test on HGADFN003 cells (HGADFN003, 24h, replicate 2), 41.1765%; in the test with HGADFN003 cells (HGADFN003, 24h, replicate 3), 48.5714%. The CyclinA2 positive cells came out at 59.0909% in the test with HGADFN003 cells (HGADFN003, 48h, replicate 1); 58.3333% in the test with HGADFN003 cells (HGADFN003, 48h, replicate 2); 56.7568% in the test on HGADFN003 cells (HGADFN003, 48h, replicate 3). Besides, in the test on HGADFN003 cells (HGPS cells), the “level of CyclinA2” value is reported as “increased level of CyclinA2”. Further, the “etoposide-, ras- and H2O2-induced early stage cellular senescence” value with IMR90 cells was “delayed etoposide-, ras- and H2O2-induced early stage cellular senescence modestly”.
